We go through one compound from PMC5454922, “Interaction of Biliverdin Chromophore with Near-Infrared Fluorescent Protein BphP1-FP Engineered from Bacterial Phytochrome” (International Journal of Molecular Sciences, 2017).

Common to all, as to type: binding
The target in assay [1] is T1, BphP1-FP (Rhodopseudomonas palustris, UniProt A0A161I5N6, C19S/I252C, form not given).
T1 construct: engineered near-infrared fluorescent protein from PAS-GAF (CBD) of RpBphP1, lacks PHY and effector domains; N-terminal polyhistidine tag (pBAD/His-B); E. coli LMG194 with heme oxygenase; monomer, about 35 kDa
T1 sequence (A0A161I5N6 1-314 C19S/I252C limits assumed): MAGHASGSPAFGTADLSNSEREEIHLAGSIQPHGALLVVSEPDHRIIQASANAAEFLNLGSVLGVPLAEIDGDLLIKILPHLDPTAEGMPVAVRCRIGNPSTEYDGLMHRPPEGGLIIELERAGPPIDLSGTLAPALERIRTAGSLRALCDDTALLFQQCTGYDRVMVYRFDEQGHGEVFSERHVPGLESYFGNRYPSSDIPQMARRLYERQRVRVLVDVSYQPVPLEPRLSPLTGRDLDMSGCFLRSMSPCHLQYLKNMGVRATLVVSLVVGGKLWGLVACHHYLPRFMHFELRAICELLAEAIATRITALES
The assay is described as follows: zinc-induced fluorescence on SDS-PAGE; absorption and fluorescence spectroscopy. Conditions: covalent, to Cys256 (GAF) only; otherwise same.

The target in assay [2] is T2, BphP1-FP (Rhodopseudomonas palustris, UniProt A0A161I5N6, I252C, form not given).
T2 construct: engineered near-infrared fluorescent protein from PAS-GAF (CBD) of RpBphP1, lacks PHY and effector domains; N-terminal polyhistidine tag (pBAD/His-B); E. coli LMG194 with heme oxygenase; monomer, about 35 kDa
T2 sequence (A0A161I5N6 1-314 I252C limits assumed): as the sequence (A0A161I5N6 1-314 C19S/I252C limits assumed) above, with S19C counted along it
Described as above. Conditions: covalent, to Cys256 (GAF) and partly also Cys15 (PAS); co-expressed heme oxygenase supplies BV; 20 mM Tris/HCl pH 8.0, 1 mM TCEP.

Assay [3] addresses T3, BphP1-FP (Rhodopseudomonas palustris, UniProt A0A161I5N6, C19S, form not given).
T3 construct: engineered near-infrared fluorescent protein from PAS-GAF (CBD) of RpBphP1, lacks PHY and effector domains; N-terminal polyhistidine tag (pBAD/His-B); E. coli LMG194 with heme oxygenase; monomer, about 35 kDa
Kind of assay: absorption and fluorescence spectroscopy of purified holoprotein. Particulars: non-covalent (no reactive Cys); otherwise same.

T3 sequence (A0A161I5N6 1-314 C19S limits assumed): as the sequence (A0A161I5N6 1-314 C19S/I252C limits assumed) above, with C252I counted along it

Consider `C=CC1=C(C)C(=Cc2[nH]c(C=C3N=C(C=C4NC(=O)C(C)=C4C=C)C(C)=C3CCC(=O)O)c(CCC(=O)O)c2C)NC1=O` [BV, biliverdin], for which the “zinc-induced fluorescence on SDS-PAGE; absorption and fluorescence spectroscopy” value in assay [1] was “there was no non-covalently bound BV in BphP1-FP/C15S”; in assay [2], “The zinc-staining assay confirmed the covalent binding of the BV chromophore in BphP1-FP, BphP1-FP/C256I”. In addition, the “absorption and fluorescence spectroscopy of purified holoprotein” value in assay [3] is “Absorption and fluorescence spectra of BphP1-FP/C15S/C256I mutant without Cys15 and Cys256 residues”.
